In ChEMBL document CHEMBL1201862, “PubChem BioAssay data set” (2004):
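Values below derive from 48-hour exposures of cells grown in 96-well plates, with endpoints linearly interpolated between the two concentrations bracketing the appropriate inhibition level. At the GI50, growth is halved.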 Calls of active or inactive are those of the source. Cut-off read from the data, not from the text of the source: active = GI50 up to about 1.1 µM and inactive = higher.

Legend:
Experiment in all cases: growth of human tumour cells (NCI), 48 h
[1] = system: CAKI-1
[2] = system: COLO 205
[3] = system: EKVX
[4] = system: HOP-92
[5] = system: HT-29
[6] = system: IGROV-1
[7] = system: MOLT-4
[8] = system: NCI-H23
[9] = system: OVCAR-8
[10] = system: SF-295
[11] = system: SK-MEL-28
[12] = system: SK-MEL-2
[13] = system: SK-MEL-5
[14] = system: SN12C
[15] = system: SW-620
[16] = system: T47D
[17] = system: U-251
[18] = system: UACC-257
[19] = system: UACC-62
[20] = system: UO-31

Structure (SMILES) | GI50 [1] | GI50 [2] | GI50 [3] | GI50 [4] | GI50 [5] | GI50 [6] | GI50 [7] | GI50 [8] | GI50 [9] | GI50 [10] | GI50 [11] | GI50 [12] | GI50 [13] | GI50 [14] | GI50 [15] | GI50 [16] | GI50 [17] | GI50 [18] | GI50 [19] | GI50 [20]
CC1CCC2N(C1)CC1C3(O)CC45OC6(O)C(O)CCC4(C)C6CCC5C3(O)CC(O)C1(O)C2(C)O (stereo unspecified) | > 100 µM (inactive) | > 100 µM (inactive) | > 100 µM (inactive) | > 100 µM (inactive) | > 100 µM (inactive) | > 100 µM (inactive) | > 100 µM (inactive) | > 100 µM (inactive) | > 100 µM (inactive) | > 100 µM (inactive) | > 100 µM (inactive) | > 100 µM (inactive) | > 100 µM (inactive) | > 100 µM (inactive) | > 100 µM (inactive) | > 100 µM (inactive) | > 100 µM (inactive) | > 100 µM (inactive) | > 100 µM (inactive) | > 100 µM (inactive)
COC(=O)c1cc(NC2OCC(OC(C)=O)C(OC(C)=O)C2OC(C)=O)nc(SC)c1C(=O)OC (stereo unspecified) | > 100 µM (inactive) | > 100 µM (inactive) | > 100 µM (inactive) | > 100 µM (inactive) | > 100 µM (inactive) | > 100 µM (inactive) | > 100 µM (inactive) | > 100 µM (inactive) | > 100 µM (inactive) | > 100 µM (inactive) | > 100 µM (inactive) | > 100 µM (inactive) | > 100 µM (inactive) | > 100 µM (inactive) | > 100 µM (inactive) | > 100 µM (inactive) | > 100 µM (inactive) | > 100 µM (inactive) | > 100 µM (inactive) | > 100 µM (inactive)
CC(C)[Si](OC1=C(C(=O)N(C)c2ccccc2Cl)CCCCC1)(C(C)C)C(C)C | > 100 µM (inactive) | > 100 µM (inactive) | > 100 µM (inactive) | > 100 µM (inactive) | > 100 µM (inactive) | > 100 µM (inactive) | > 100 µM (inactive) | > 100 µM (inactive) | > 100 µM (inactive) | > 100 µM (inactive) | > 100 µM (inactive) |  | > 100 µM (inactive) | > 100 µM (inactive) | > 100 µM (inactive) | > 100 µM (inactive) | > 100 µM (inactive) | > 100 µM (inactive) |  | > 100 µM (inactive)
O=C(O)/C(Cc1ccnc2ccccc12)=N\O | > 100 µM (inactive) | > 100 µM (inactive) | > 100 µM (inactive) | > 100 µM (inactive) | > 100 µM (inactive) | > 100 µM (inactive) | > 100 µM (inactive) | > 100 µM (inactive) | > 100 µM (inactive) | > 100 µM (inactive) | > 100 µM (inactive) | > 100 µM (inactive) | > 100 µM (inactive) | > 100 µM (inactive) | > 100 µM (inactive) | > 100 µM (inactive) | > 100 µM (inactive) | > 100 µM (inactive) | > 100 µM (inactive) | > 100 µM (inactive)
COC(=S)OC1CC(n2cnc3c(N)ncnc32)OC1CO[Si](C)(C)C(C)(C)C (stereo unspecified) | > 10 µM (inactive) | 17.7 µM (inactive) |  | 31 µM (inactive) | 16.5 µM (inactive) | 17.6 µM (inactive) | 5.24 µM (inactive) | 14 µM (inactive) | 24.3 µM (inactive) | 17.1 µM (inactive) | 28.8 µM (inactive) | 22.6 µM (inactive) |  | 20.4 µM (inactive) | 28.6 µM (inactive) | 11.8 µM (inactive) | 14.3 µM (inactive) | 21.3 µM (inactive) | 10.6 µM (inactive) | 16.6 µM (inactive)
COc1ccc(OC)c(SC(CC(=O)c2ccccc2)c2ccccc2)c1 (stereo unspecified) | 13.9 µM (inactive) | 19.5 µM (inactive) | 15.2 µM (inactive) | 33.7 µM (inactive) | 8.24 µM (inactive) | 11 µM (inactive) | 0.877 µM (active) | 18.6 µM (inactive) | 11.3 µM (inactive) | 15.2 µM (inactive) | 17.5 µM (inactive) | 20.1 µM (inactive) | 13.8 µM (inactive) | 17.9 µM (inactive) | 3.73 µM (inactive) | 10.1 µM (inactive) | 10.2 µM (inactive) | 15.9 µM (inactive) | 15.6 µM (inactive) | 12.1 µM (inactive)
CC(C)(C)[Si](C)(C)OCC1OC(n2cnc3c(N)ncnc32)CC1OS(C)(=O)=O (stereo unspecified) | > 100 µM (inactive) | > 100 µM (inactive) |  | 0.506 µM (active) | > 100 µM (inactive) | > 100 µM (inactive) | > 100 µM (inactive) | 51.1 µM (inactive) | > 100 µM (inactive) | > 100 µM (inactive) | > 100 µM (inactive) | > 100 µM (inactive) |  | > 100 µM (inactive) | > 100 µM (inactive) | > 100 µM (inactive) | > 100 µM (inactive) | > 100 µM (inactive) | 42.1 µM (inactive) | 51.4 µM (inactive)
O=C(Nc1ccccn1)/C(=C\C(=O)c1ccc(Cl)cc1)Nc1ccccc1 | > 10 µM (inactive) | > 10 µM (inactive) | > 10 µM (inactive) | > 10 µM (inactive) | > 10 µM (inactive) | > 10 µM (inactive) | > 10 µM (inactive) | > 10 µM (inactive) | > 10 µM (inactive) | > 10 µM (inactive) | > 10 µM (inactive) |  | > 10 µM (inactive) | > 10 µM (inactive) | > 10 µM (inactive) | > 10 µM (inactive) |  | > 10 µM (inactive) | > 10 µM (inactive) | 
CC1=C(C)[C@@]2(C)O[C@@]2(C)O[C@@]2(C)O[C@@]12C | > 100 µM (inactive) | > 100 µM (inactive) | > 100 µM (inactive) | > 100 µM (inactive) | > 100 µM (inactive) |  |  | > 100 µM (inactive) | > 100 µM (inactive) | > 100 µM (inactive) | > 100 µM (inactive) | > 100 µM (inactive) | > 100 µM (inactive) | > 100 µM (inactive) |  | > 100 µM (inactive) | > 100 µM (inactive) | > 100 µM (inactive) | > 100 µM (inactive) | > 100 µM (inactive)
Cc1ccc2oc3c(ccc(=O)n3C)c(=O)c2c1 | > 100 µM (inactive) | > 100 µM (inactive) | 89.7 µM (inactive) | > 100 µM (inactive) | > 100 µM (inactive) | > 100 µM (inactive) |  | > 100 µM (inactive) | > 100 µM (inactive) | > 100 µM (inactive) | > 100 µM (inactive) | > 100 µM (inactive) | > 100 µM (inactive) | > 100 µM (inactive) | > 100 µM (inactive) | > 100 µM (inactive) | > 100 µM (inactive) |  | > 100 µM (inactive) | > 100 µM (inactive)
Cc1cc(S(=O)(=O)Nc2nc(Nc3ccccc3)n[nH]2)c(SSc2cc(Cl)c(C)cc2S(=O)(=O)Nc2nc(Nc3ccccc3)n[nH]2)cc1Cl | 90.4 µM (inactive) | > 100 µM (inactive) | > 100 µM (inactive) |  | 98.2 µM (inactive) | > 100 µM (inactive) | 35.7 µM (inactive) | > 100 µM (inactive) | > 100 µM (inactive) | > 100 µM (inactive) | > 100 µM (inactive) |  | > 100 µM (inactive) | > 100 µM (inactive) | > 100 µM (inactive) | 67.5 µM (inactive) | 61.4 µM (inactive) | > 100 µM (inactive) | > 100 µM (inactive) | > 100 µM (inactive)
C=CCC(O[Si](C)(C)C(C)(C)C)c1cc(O[Si](C)(C)C(C)(C)C)ccc1OC (stereo unspecified) | 40.7 µM (inactive) | > 83 µM (inactive) | > 100 µM (inactive) | 35.4 µM (inactive) | > 100 µM (inactive) | > 100 µM (inactive) | > 70.8 µM (inactive) | > 100 µM (inactive) | > 81.3 µM (inactive) | > 71.8 µM (inactive) | > 81.8 µM (inactive) | > 75.5 µM (inactive) | > 61.1 µM (inactive) | > 87.3 µM (inactive) | > 100 µM (inactive) |  | > 71.6 µM (inactive) | > 79.4 µM (inactive) | > 81.3 µM (inactive) | > 82 µM (inactive)
NC1=C(C(=O)O)C(=O)C(Nc2c(O)cccc2C(=O)O)=CC1=O | > 100 µM (inactive) | > 100 µM (inactive) | > 100 µM (inactive) | > 100 µM (inactive) | > 100 µM (inactive) | > 100 µM (inactive) | > 100 µM (inactive) | > 100 µM (inactive) | > 100 µM (inactive) | 43 µM (inactive) | 0.942 µM (active) | 59.3 µM (inactive) | 76 µM (inactive) | > 100 µM (inactive) | > 100 µM (inactive) |  | > 100 µM (inactive) | > 100 µM (inactive) | 60 µM (inactive) | > 100 µM (inactive)
COC(=O)[C@@H]1C=C[C@H](NC(C)=O)C1 | > 100 µM (inactive) | > 100 µM (inactive) |  | > 100 µM (inactive) | > 100 µM (inactive) | > 100 µM (inactive) | > 100 µM (inactive) | > 100 µM (inactive) | > 100 µM (inactive) | > 100 µM (inactive) | > 100 µM (inactive) | > 100 µM (inactive) | > 100 µM (inactive) | > 100 µM (inactive) | > 100 µM (inactive) | > 100 µM (inactive) | > 100 µM (inactive) | > 100 µM (inactive) | > 100 µM (inactive) | > 100 µM (inactive)
